Values belong to the molecule of their own block, whether it stands above or below them. The source made the active and inactive calls. The rule behind the calls is not given here.
Assays:
[1] = molecular target: T1, Seed linoleate 13S-lipoxygenase-1 (Glycine max) (UniProt P08170); experiment: Ratio of proximal to distal region oxidation by 1-lipoxygenase isolated from soybean; Ratio of proximal and distal was 25:75
T1 sequence (whole entry): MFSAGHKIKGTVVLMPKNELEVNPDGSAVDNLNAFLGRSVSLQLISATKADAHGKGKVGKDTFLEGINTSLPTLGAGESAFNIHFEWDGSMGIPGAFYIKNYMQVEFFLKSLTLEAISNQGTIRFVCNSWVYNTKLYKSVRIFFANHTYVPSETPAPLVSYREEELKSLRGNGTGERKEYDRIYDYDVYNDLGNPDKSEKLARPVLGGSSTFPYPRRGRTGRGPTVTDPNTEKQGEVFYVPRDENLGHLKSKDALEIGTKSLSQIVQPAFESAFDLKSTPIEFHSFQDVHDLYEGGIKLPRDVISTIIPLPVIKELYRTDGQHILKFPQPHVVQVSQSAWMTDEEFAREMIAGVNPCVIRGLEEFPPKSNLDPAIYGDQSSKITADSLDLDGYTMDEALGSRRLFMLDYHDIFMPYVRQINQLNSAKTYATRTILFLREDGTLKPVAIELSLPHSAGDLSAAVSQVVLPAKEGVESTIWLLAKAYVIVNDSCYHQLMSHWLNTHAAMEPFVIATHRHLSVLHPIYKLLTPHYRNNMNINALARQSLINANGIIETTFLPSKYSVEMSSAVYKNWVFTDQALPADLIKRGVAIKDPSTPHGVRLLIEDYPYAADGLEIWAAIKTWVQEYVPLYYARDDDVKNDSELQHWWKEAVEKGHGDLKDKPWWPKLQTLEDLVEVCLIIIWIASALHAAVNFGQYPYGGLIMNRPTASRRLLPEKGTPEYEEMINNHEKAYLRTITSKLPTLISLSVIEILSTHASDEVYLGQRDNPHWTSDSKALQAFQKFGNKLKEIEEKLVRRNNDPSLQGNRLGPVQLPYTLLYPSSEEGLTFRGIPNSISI

[2] = Partition coefficient (logP); type: physicochemical; settings: octanol/water
[3] = molecular target: T1, Seed linoleate 13S-lipoxygenase-1 (Glycine max); experiment: Ratio of proximal to distal region oxidation by 1-lipoxygenase isolated from soybean; Ratio of proximal and distal was 1:99
[4] = molecular target: T1, Seed linoleate 13S-lipoxygenase-1 (Glycine max); experiment: Ratio of proximal to distal region oxidation by 1-lipoxygenase isolated from soybean; Ratio of proximal and distal was 89:11
[5] = molecular target: T1, Seed linoleate 13S-lipoxygenase-1 (Glycine max)
[6] = molecular target: T1, Seed linoleate 13S-lipoxygenase-1 (Glycine max); experiment: Ratio of proximal to distal region oxidation by 1-lipoxygenase isolated from soybean; Ratio of proximal and distal was 76:24
[7] = molecular target: T1, Seed linoleate 13S-lipoxygenase-1 (Glycine max); experiment: Ratio of proximal to distal region oxidation by 1-lipoxygenase isolated from soybean; Ratio of proximal and distal was 87:13
[8] = molecular target: T1, Seed linoleate 13S-lipoxygenase-1 (Glycine max); experiment: Ratio of proximal to distal region oxidation by 1-lipoxygenase isolated from soybean; Ratio of proximal and distal was 95:5
[9] = molecular target: T1, Seed linoleate 13S-lipoxygenase-1 (Glycine max); experiment: Ratio of proximal to distal region oxidation by 1-lipoxygenase isolated from soybean; Ratio of proximal and distal was 35:65
[10] = molecular target: T1, Seed linoleate 13S-lipoxygenase-1 (Glycine max); experiment: Ratio of proximal to distal region oxidation by 1-lipoxygenase isolated from soybean; Ratio of proximal and distal was 10:90
[11] = molecular target: T1, Seed linoleate 13S-lipoxygenase-1 (Glycine max); experiment: Ratio of proximal to distal region oxidation by 1-lipoxygenase isolated from soybean; Ratio of proximal and distal was 99:1
[12] = molecular target: T1, Seed linoleate 13S-lipoxygenase-1 (Glycine max); experiment: Ratio of proximal to distal region oxidation by 1-lipoxygenase isolated from soybean; Ratio of proximal and distal was 50:50

Regiospecificity [1]: Ratio of proximal and distal was 25:75
SMILES: CCCCCCCCCC/C=C\C/C=C\CCOC(=O)CCCCC(=O)O

SMILES: [N-]=[N+]=NCC/C=C/C=C/[C@@H](O)CCO
logP ([2]; read-out: logP): 6.1

Regiospecificity [3]: Ratio of proximal and distal was 1:99
SMILES: CC(C)=CCC/C(C)=C/C/C=C\C/C=C\CCOC(=O)CCCCC(=O)O

Regiospecificity [4]: Ratio of proximal and distal was 89:11
SMILES: [N-]=[N+]=NCC/C=C\C/C=C\CCOC(=O)COCCO

Regiospecificity [3]: Ratio of proximal and distal was 1:99
SMILES: CC(C)=CCC/C(C)=C/C/C=C\C/C=C\CCOC(=O)COCCO

Regiospecificity [5]: Active
SMILES: CCCCC/C=C\C/C=C\CCCCCCCC(=O)O

logP [2]: 3.7
SMILES: CC(C)=CCC/C(C)=C/C/C=C\C=C\[C@@H](O)CCO

Regiospecificity [6]: Ratio of proximal and distal was 76:24
SMILES: CCCCCCC/C=C\C/C=C\CCOC(=O)CCCCC(=O)O

Regiospecificity [7]: Ratio of proximal and distal was 87:13
SMILES: CCCCCC/C=C\C/C=C\CCOC(=O)CCCCC(=O)O

logP ([2]; read-out: logP): 2.82
SMILES: CCCC/C=C\C=C\[C@@H](O)CCO

Regiospecificity [8]: Ratio of proximal and distal was 95:5
SMILES: CCCCC/C=C\C/C=C\CCOC(=O)CCCCC(=O)O

Regiospecificity [9]: Ratio of proximal and distal was 35:65
SMILES: CCCCCCCCC/C=C\C/C=C\CCOC(=O)CCCCC(=O)O

Regiospecificity [10]: Ratio of proximal and distal was 10:90
SMILES: CCCCCCCC/C=C\C/C=C\CCOC(=O)COCCO

Regiospecificity [11]: Ratio of proximal and distal was 99:1
SMILES: CCCCC/C=C\C/C=C\CCOC(=O)COCCO

logP ([2]; read-out: logP): 4.41
SMILES: CCCCCCCC/C=C\C=C\[C@@H](O)CCO

Regiospecificity [12]: Ratio of proximal and distal was 50:50
SMILES: CCCCCCCC/C=C\C/C=C\CCOC(=O)CCCCC(=O)O

From ChEMBL document CHEMBL1131694, “New minimal substrate structural requirements in the enzymatic peroxidation of alkenes with soybean lipoxygenase” (Bioorg Med Chem Lett, 1999)
